Target: T1, NKA receptor (Mus musculus, UniProt P30549)
T1 construct: contractions of the urinary bladder in the anaesthetized mouse; from tissue; host or cells: urinary bladder of the anaesthetized animal, in vivo
T1 sequence (P30549 1-384): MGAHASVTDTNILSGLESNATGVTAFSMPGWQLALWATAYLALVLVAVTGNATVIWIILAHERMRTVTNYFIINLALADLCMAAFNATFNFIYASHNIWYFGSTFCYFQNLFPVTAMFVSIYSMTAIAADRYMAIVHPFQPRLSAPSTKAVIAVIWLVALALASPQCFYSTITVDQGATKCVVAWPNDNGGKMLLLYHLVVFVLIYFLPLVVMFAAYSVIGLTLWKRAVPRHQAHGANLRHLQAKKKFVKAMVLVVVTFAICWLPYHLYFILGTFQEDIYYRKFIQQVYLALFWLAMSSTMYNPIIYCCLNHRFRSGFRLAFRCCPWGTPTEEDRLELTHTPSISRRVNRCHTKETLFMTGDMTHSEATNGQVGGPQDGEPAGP
Assay: in vivo inhibition of agonist [betaAla8]NKA(4-10)-induced contractions of the urinary bladder after intravenous administration
Settings: anaesthetized mouse, 10 nmol/Kg i.v.
Description: The capability of the compounds of the present invention to interact as agonists or antagonists with the neurokynin A (NKA) receptor has been valued in a in vitro test using the pulmonary artery of a rabbit (RPA) (Rovero et al., Neuropeptides, 1989, 13, 263-270) and their activity was determined as pKB ([…] of the dissociation constant), as described in Jenkinson et al., TiPS, 12, 53-56, 1991. For example, compound 2 has shown a pKB =8.67. The capability of the products of the present invention to interact as agonists or antagonists with NKA receptor has been valued in vivo as capability, after intravenous administration,to inhibit the agonist [betaAla^8 ] NKA (4-10)-induced contractions of the urinary bladder in the anaesthetized mouse, as described in Maggi et al., J. Pharmacol. Exp. Ther., 1991, 257, 1172. Compound 1, e.g., causes, at dose of 10 nmol/Kg i.v., an inhibitory effect of 50-70%, as it has been valued at different times. The effect lasts over a period of more than 3 hours.

cyclo([Asn(β-D-Glc)-Asp-Trp-Phe-Dap-Leu]cyclo(2β-5β)) [Compound 1]
duration of the inhibitory effect: more than 3 hours
inhibitory effect on [betaAla8]NKA(4-10)-induced contractions of the urinary bladder (valued at different times): 50-70%
